This passage reports solubility results from patent US20040062800A1, “Sustained release pharmaceutical dosage forms with minimized ph dependent dissolution profiles” (priority 2000, published 2004).

The structures appear in SMILES notation. Counter-ions that a name gives are not always drawn.

The nature of the data set: physchem. The class given is physicochemical. As to conditions: 25 °C. From the text:
Below pH 3, the solubility increased as the pH decreased which is consistent with formation of a more soluble protonated form. […] Above pH 4, the solubility was independent of pH and remained constant (ca. 1.2 mcg/mL) up to pH 8. Above pH 8, the solubility increased with increasing pH which is due to the ionization of the quinazoline moiety.

As to `O=C1CN2Cc3c(ccc(Cl)c3Cl)N=C2N1` [anagrelide HCl], the solubility runs as follows: (aqueous buffer) approximately 1.2 µg/mL; (pH 0.96, simulated gastric fluid) 236 µg/mL; (pH 11.4, aqueous buffer) 992 µg/mL.

By solubility is commonly meant the dissolved amount per volume that the medium holds.
